Source: patent publication US20070010671A1, “Novel quinazoline derivatives and methods of treatment related to the use thereof” (priority 2003, published 2007)
pIC50: −log10 of the molar value.

Each compound was assayed against MCH receptor (Homo sapiens, UniProt Q99705) (assay: High throughput functional screening FLIPR/FDSS6000: inhibition of MCH-evoked intracellular Ca2+ changes). Details: class by percent of control at 10^-7 M or IC50.
Type: cell-based
Summary of the method: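 Seed cells the day before, then load them with Fluo4-AM for one hour at 37° C and wash in HEPES-buffered HBSS, pH 7.4. Add compound for 3 min, then stimulate with 50 nM MCH. Monitor the calcium transient for 290 s.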

Question: For `COc1cccc(CNC(=S)NC[C@H]2CC[C@@H](Nc3nc(N(C)C)c4ccccc4n3)CC2)c1` [compound 733], which class is on record?
Answer: Its class is 3 (Class 3: The value of percent of control at 10^−7 M was more than 60% or the value of IC50 was more than 200 nM.).

Question: With `CN(C)c1nc(N[C@H]2CC[C@@H](CNC(=S)Nc3cccc(I)c3)CC2)nc2ccccc12` [compound 651] as the compound, how does the class read?
Answer: The class was 3 (Class 3: The value of percent of control at 10^−7 M was more than 60% or the value of IC50 was more than 200 nM.).

Question: `CCCCCCNC(=S)NC[C@H]1CC[C@@H](Nc2nc(N(C)C)c3ccccc3n2)CC1` [compound 600] was tested. Which class did it give?
Answer: Its class is 3 (Class 3: The value of percent of control at 10^−7 M was more than 60% or the value of IC50 was more than 200 nM.).

Question: Which class does the source give for `COc1ccc(NC(=S)NC[C@H]2CC[C@@H](Nc3nc(N(C)C)c4ccccc4n3)CC2)c(OC)c1` [compound 590] here?
Answer: Its class is 3 (Class 3: The value of percent of control at 10^−7 M was more than 60% or the value of IC50 was more than 200 nM.).

Question: How did the class turn out when `CN(C)c1nc(N[C@H]2CC[C@@H](CNC(=O)Nc3cc([N+](=O)[O-])ccc3Cl)CC2)nc2ccccc12` [compound 487] was run?
Answer: The class was 3 (Class 3: The value of percent of control at 10^−7 M was more than 60% or the value of IC50 was more than 200 nM.).

Question: Which class does the source give for `CC(C)c1ccccc1NC(=S)N[C@H]1CC[C@@H](Nc2nc(N(C)C)c3ccccc3n2)CC1` [compound 256, N-(cis-4-{[4-(dimethylamino)quinazolin-2-yl]amino}cyclohexyl)-N′-(2-isopropylphenyl)thiourea] here?
Answer: The class was 1 (Class 1: The value of percent of control at 10^−7 M was less than 40% or the value of IC50 was less than 50 nM.).

Question: With `CN(C)c1nc(N[C@H]2CC[C@@H](CNC(=O)Nc3cc(Cl)ccc3Cl)CC2)nc2ccccc12` [compound 427] as the compound, how does the class read?
Answer: The class was 3 (Class 3: The value of percent of control at 10^−7 M was more than 60% or the value of IC50 was more than 200 nM.).

Question: `CSc1ccc(NC(=S)NC[C@H]2CC[C@@H](Nc3nc(N(C)C)c4ccccc4n3)CC2)cc1` [compound 606] was tested. Which class did it give?
Answer: The class was 3 (Class 3: The value of percent of control at 10^−7 M was more than 60% or the value of IC50 was more than 200 nM.).

Question: For `Cc1ccc(CNC(=O)NC[C@H]2CC[C@@H](Nc3nc(N(C)C)c4ccccc4n3)CC2)cc1` [compound 559], which class is on record?
Answer: Its class is 3 (Class 3: The value of percent of control at 10^−7 M was more than 60% or the value of IC50 was more than 200 nM.).

Question: With `Cc1cc(C)c(NC(=S)NC[C@H]2CC[C@@H](Nc3nc(N(C)C)c4ccccc4n3)CC2)cc1C` [compound 717] as the compound, how does the class read?
Answer: Its class is 3 (Class 3: The value of percent of control at 10^−7 M was more than 60% or the value of IC50 was more than 200 nM.).

Question: `CN(C)c1nc(N[C@H]2CC[C@@H](NC(=S)NCc3cccc(F)c3)CC2)nc2ccccc12` [compound 308, N-(cis-4-{[4-(dimethylamino)quinazolin-2-yl]amino}cyclohexyl)-N′-(3-fluorobenzyl)thiourea] was tested. Which class did it give?
Answer: Its class is 2 (Class 2: The value of percent of control at 10^−7 M was from 40% to 60% or the value of IC50 was from 50 nM to 200 nM.).

Question: `CN(C)c1nc(N[C@H]2CC[C@@H](CNC(=O)NCc3cccc(F)c3)CC2)nc2ccccc12` [compound 533, N-[(cis-4-{[4-(dimethylamino)quinazolin-2-yl]amino}cyclohexyl)methyl]-N′-(3-fluorobenzyl)urea] was tested. Which class did it give?
Answer: Its class is 2 (Class 2: The value of percent of control at 10^−7 M was from 40% to 60% or the value of IC50 was from 50 nM to 200 nM.).

Question: With `CN(C)c1nc(N[C@H]2CC[C@@H](NC(=S)Nc3ccc4c(c3)OCO4)CC2)nc2ccccc12` [compound 370, N-1,3-benzodioxol-5-yl-N′-(cis-4-{[4-(dimethylamino)quinazolin-2-yl]amino}cyclohexyl)thiourea] as the compound, how does the class read?
Answer: Its class is 1 (Class 1: The value of percent of control at 10^−7 M was less than 40% or the value of IC50 was less than 50 nM.).

Question: For `COC(=O)[C@H](CCSC)NC(=O)NC[C@H]1CC[C@@H](Nc2nc(N(C)C)c3ccccc3n2)CC1` (relative stereo) [compound 442, methyl N-({[(cis-4-{[4-(dimethylamino)quinazolin-2-yl]amino}cyclohexyl)methyl]amino}carbonyl)methioninate], which class is on record?
Answer: The class was 2 (Class 2: The value of percent of control at 10^−7 M was from 40% to 60% or the value of IC50 was from 50 nM to 200 nM.).

Question: With `CN(C)c1nc(N[C@H]2CC[C@@H](NC(=S)Nc3ccc(Cl)cc3C(F)(F)F)CC2)nc2ccccc12` [compound 314, N-[4-chloro-2-(trifluoromethyl)phenyl]-N′-(cis-4-{[4-(dimethylamino)quinazolin-2-yl]amino}cyclohexyl)thiourea] as the compound, how does the class read?
Answer: The class was 1 (Class 1: The value of percent of control at 10^−7 M was less than 40% or the value of IC50 was less than 50 nM.).

Question: How did the class turn out when `CN(C)c1nc(N[C@H]2CC[C@@H](NC(=S)Nc3ccccc3F)CC2)nc2ccccc12` [compound 218] was run?
Answer: Its class is 3 (Class 3: The value of percent of control at 10^−7 M was more than 60% or the value of IC50 was more than 200 nM.).

Question: For `COC(=O)c1cccc(NC(=S)N[C@H]2CC[C@@H](Nc3nc(N(C)C)c4ccccc4n3)CC2)c1` [compound 263], which class is on record?
Answer: Its class is 1 (Class 1: The value of percent of control at 10^−7 M was less than 40% or the value of IC50 was less than 50 nM.).

Question: For `COc1ccc(CNC(=S)N[C@H]2CC[C@@H](Nc3nc(N(C)C)c4ccccc4n3)CC2)cc1OC` [compound 304], which class is on record?
Answer: Its class is 3 (Class 3: The value of percent of control at 10^−7 M was more than 60% or the value of IC50 was more than 200 nM.).

Question: `CN(C)c1nc(N[C@H]2CC[C@@H](NC(=S)Nc3cc(Br)ccc3Br)CC2)nc2ccccc12` [compound 295] was tested. Which class did it give?
Answer: The class was 3 (Class 3: The value of percent of control at 10^−7 M was more than 60% or the value of IC50 was more than 200 nM.).

Question: Which class does the source give for `CC(=O)c1ccc(NC(=O)NC[C@H]2CC[C@@H](Nc3nc(N(C)C)c4ccccc4n3)CC2)cc1` [compound 407] here?
Answer: Its class is 3 (Class 3: The value of percent of control at 10^−7 M was more than 60% or the value of IC50 was more than 200 nM.).

Same assay, conditions: class by percent of control at 10^-7 M or by IC50; read-out: class

Question: `COc1ccc(NC(=S)N[C@H]2CC[C@@H](Nc3nc(N(C)C)c4ccccc4n3)CC2)cc1` [compound 183, N-(cis-4-{[4-(dimethylamino)quinazolin-2-yl]amino}cyclohexyl)-N′-(4-methoxyphenyl)thiourea] was tested. Which pIC50 did it give?
Answer: The pIC50 was 6.70 to 7.30.

Question: How did the pIC50 turn out when `CN(C)c1nc(N[C@H]2CC[C@@H](NC(=O)Nc3ccc(Cl)c(Cl)c3)CC2)nc2ccccc12` [compound 20] was run?
Answer: Its pIC50 is < 6.70.

Question: `CN(C)c1nc(N[C@H]2CC[C@@H](NC(=O)Nc3ccc4ccccc4c3)CC2)nc2ccccc12` [compound 112] was tested. Which pIC50 did it give?
Answer: The pIC50 was < 6.70.

Question: `COc1ccccc1OC(=O)NC[C@H]1CC[C@@H](Nc2nc(N(C)C)c3ccccc3n2)CC1` [compound 871] was tested. Which pIC50 did it give?
Answer: The pIC50 was < 6.70.

Question: With `CCc1cccc(C(C)C)c1NC(=S)N[C@H]1CC[C@@H](Nc2nc(N(C)C)c3ccccc3n2)CC1` [compound 173, N-(cis-4-{[4-(dimethylamino)quinazolin-2-yl]amino}cyclohexyl)-N′-(2-ethyl-6-isoprophylphenyl)thiourea] as the compound, how does the pIC50 read?
Answer: Its pIC50 is > 7.30.

Question: With `CN(C)c1nc(N[C@H]2CC[C@@H](NC(=O)Nc3cccc(F)c3)CC2)nc2ccccc12` [compound 37] as the compound, how does the pIC50 read?
Answer: Its pIC50 is < 6.70.

Question: With `Cc1ccc(OC(=O)NC[C@H]2CC[C@@H](Nc3nc(N(C)C)c4ccccc4n3)CC2)cc1` [compound 881] as the compound, how does the pIC50 read?
Answer: The pIC50 was < 6.70.

Question: How did the pIC50 turn out when `Cc1cc(Cl)ccc1NC(=O)N[C@H]1CC[C@@H](Nc2nc(N(C)C)c3ccccc3n2)CC1` [compound 146] was run?
Answer: The pIC50 was > 7.30.

Question: With `CN(C)c1nc(N[C@H]2CC[C@@H](CNC(=S)Nc3ccc(-c4cnco4)cc3)CC2)nc2ccccc12` [compound 818] as the compound, how does the pIC50 read?
Answer: Its pIC50 is < 6.70.

Question: With `Cc1ccc(OC(=O)N[C@H]2CC[C@@H](Nc3nc(N(C)C)c4ccccc4n3)CC2)cc1` [compound 861] as the compound, how does the pIC50 read?
Answer: The pIC50 was < 6.70.

Same assay, conditions: class by percent of control at 10^−7 M or by IC50; read-out: class

Question: How did the pIC50 turn out when `CN(C)c1nc(N[C@H]2CC[C@@H](C(=O)NCc3ccc(F)c(C(F)(F)F)c3)CC2)nc2ccccc12` [Example 1176, cis-4-{[4-(dimethylamino)quinazolin-2-yl]amino}-N-[4-fluoro-3-(trifluoromethyl)benzyl]cyclohexanecarboxamide] was run?
Answer: Its pIC50 is > 7.30.

Question: With `CN(C)c1nc(N[C@H]2CC[C@@H](CNC(=O)[C@@H](O)c3ccccc3)CC2)nc2ccccc12` [Example 1103, (2S)-N-[(cis-4-{[4-(dimethylamino)quinazolin-2-yl]amino}cyclohexyl)methyl]-2-hydroxy-2-phenylacetamide] as the compound, how does the pIC50 read?
Answer: Its pIC50 is < 6.70.

Question: `CN(C)c1nc(N[C@H]2CC[C@@H](CNC(=O)[C@H](O)c3ccccc3Cl)CC2)nc2ccccc12` [Example 1101, (2R)-2-(2-chlorophenyl)-N-[(cis-4-{[4-(dimethylamino)-quinazolin-2-yl]amino}cyclohexyl)methyl]-2-hydroxyacetamide] was tested. Which pIC50 did it give?
Answer: The pIC50 was 6.70 to 7.30.

Question: `Cc1ccc([C@H](C)NC(=O)[C@H]2CC[C@@H](Nc3nc(N(C)C)c4cc(F)c(F)cc4n3)CC2)cc1` [Example 1007, cis-4-{[4-(dimethylamino)-6,7-difluoroquinazolin-2-yl]amino}-N-[(1S)-1-(4-methylphenyl)ethyl]cyclohexanecarboxamide] was tested. Which pIC50 did it give?
Answer: The pIC50 was > 7.30.

Question: How did the pIC50 turn out when `CN(C)c1nc(N[C@H]2CC[C@@H](C(=O)NCc3c(F)cccc3F)CC2)nc2ccccc12` [Example 1152, cis-N-(2,6-difluorobenzyl)-4-{[4-(dimethylamino)quinazolin-2-yl]amino}cyclohexanecarboxamide] was run?
Answer: Its pIC50 is > 7.30.

Question: `COc1ccc(NC(=O)NC[C@H]2CC[C@@H](Nc3nc(N(C)C)c4ccccc4n3)CC2)c(OC)c1` [Example 1019, N-(2,4-dimethoxyphenyl)-N′-[(cis-4-{[4-(dimethylamino)quinazolin-2-yl]amino}cyclohexyl)methyl]urea] was tested. Which pIC50 did it give?
Answer: Its pIC50 is 6.70 to 7.30.

Question: With `CN(C)c1nc(N[C@H]2CC[C@@H](C(=O)NCc3ccccc3C(F)(F)F)CC2)nc2ccccc12` [Example 1193, cis-4-{[4-(dimethylamino)quinazolin-2-yl]amino}-N-[2-(trifluoromethyl)benzyl]cyclohexanecarboxamide] as the compound, how does the pIC50 read?
Answer: The pIC50 was > 7.30.

Question: `CN(C)c1nc(N[C@H]2CC[C@@H](NC(=O)Nc3cccc(OC(F)(F)F)c3)CC2)nc2ccccc12` [Example 1009, N-(cis-4-{[4-(dimethylamino)quinazolin-2-yl]amino}cyclohexyl)-N′-[3-(trifluoromethoxy)phenyl]urea] was tested. Which pIC50 did it give?
Answer: Its pIC50 is > 7.30.
